Assay results: patent US20200361895A1, “NOVEL SULFONAMIDE CARBOXAMIDE COMPOUNDS” (Inflazome Limited, priority 2017, published 2020)
Structures can show the parent of a compound that is named as a salt.

Legend:
NLRP3 [1] = target: T1, NLRP3 (Homo sapiens, UniProt Q96P20); assay: THP-1 cells pyroptosis assay (LPS + nigericin, resazurin readout; THP IC50); assay type: cell-based; parameters: Seed THP-1 cells (25,000 cells/well) containing 1.0 μg/ml LPS in 40 μl of RPMI medium; host or cells: THP-1 cells
T1 sequence (Q96P20 whole entry): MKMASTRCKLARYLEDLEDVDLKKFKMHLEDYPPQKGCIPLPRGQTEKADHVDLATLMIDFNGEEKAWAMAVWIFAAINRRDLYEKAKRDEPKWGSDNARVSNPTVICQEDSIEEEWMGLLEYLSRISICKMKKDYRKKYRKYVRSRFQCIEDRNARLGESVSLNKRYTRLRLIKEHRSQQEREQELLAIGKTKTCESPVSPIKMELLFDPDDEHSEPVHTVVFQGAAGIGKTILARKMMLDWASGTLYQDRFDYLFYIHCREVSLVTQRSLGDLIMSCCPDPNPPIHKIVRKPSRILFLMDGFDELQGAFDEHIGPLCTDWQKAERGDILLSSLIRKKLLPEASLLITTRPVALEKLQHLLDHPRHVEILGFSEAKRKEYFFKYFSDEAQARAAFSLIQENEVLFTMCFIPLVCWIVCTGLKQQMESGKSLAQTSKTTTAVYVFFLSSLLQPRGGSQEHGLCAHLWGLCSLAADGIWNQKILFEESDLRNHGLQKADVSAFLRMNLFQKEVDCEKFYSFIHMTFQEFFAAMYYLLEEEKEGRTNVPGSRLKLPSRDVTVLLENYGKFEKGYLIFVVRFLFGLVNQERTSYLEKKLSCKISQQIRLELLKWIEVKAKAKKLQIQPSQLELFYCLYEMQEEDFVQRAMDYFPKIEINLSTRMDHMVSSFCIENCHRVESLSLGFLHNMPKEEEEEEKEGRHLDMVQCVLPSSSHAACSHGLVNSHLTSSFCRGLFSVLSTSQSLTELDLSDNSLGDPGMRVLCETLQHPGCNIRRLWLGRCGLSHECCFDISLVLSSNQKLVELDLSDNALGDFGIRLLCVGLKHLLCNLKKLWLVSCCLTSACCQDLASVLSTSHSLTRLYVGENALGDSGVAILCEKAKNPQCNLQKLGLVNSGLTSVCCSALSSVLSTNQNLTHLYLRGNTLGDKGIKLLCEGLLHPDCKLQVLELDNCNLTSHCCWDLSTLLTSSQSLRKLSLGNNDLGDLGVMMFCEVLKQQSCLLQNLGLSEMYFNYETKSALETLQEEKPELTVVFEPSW
Method in brief: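 IC50 from 4-parameter fit of resazurin fluorescence (100 μM, 1-2 hrs), reflecting surviving cells after pyroptosis. LPS-primed (1 μg/ml) THP-1 cells in FBS-free RPMI got compound for 3 hrs at 37° C (top 10 μM, half-log, 8 points), then nigericin 5 μM for 1 hr.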

NLRP3 [2] = target: T1, NLRP3; assay: Human whole blood IL1β release assay (LPS + nigericin, AlphaLisa IL-1β; HWB IC50); assay type: cell-based; parameters: Human whole blood in Li-heparin tubes was obtained from healthy donors from a volunteer donor panel; from tissue; host or cells: human whole blood from healthy donors; settings: IL-1β release
Procedure: For systemic delivery, the ability to inhibit NLRP3 when the compounds are present within the bloodstream is of great importance. For this reason, the NLRP3 inhibitory activity of a number of compounds in human whole blood was investigated in accordance with the following protocol.
Human whole blood in Li-heparin tubes was obtained from healthy donors from a volunteer donor panel. • 1. Plate out 80 μl of whole blood containing 1 μg/ml of LPS in 96-well, clear bottom cell culture plate (Corning #3585) • 2. Add 10 μl compound (8 points half-log dilution with 10 μM top dose) or vehicle (DMSO 0.1% FAC) to the appropriate wells • 3. Incubate for 3 hrs at 37° C., 5% CO2 • 4. Add 10 μl nigericin (Sigma #N7143) (10 μM FAC) to all wells • 5. Incubate for 1 hr at 37° C., 5% CO2 • 6. At the end of the incubation period, spin plates at 300×g for 5 mins to pellet cells and remove 20 μl of supernatant and add to 96-well v-bottom plates for IL-1β analysis (note: these plates containing the supernatants can be stored at −80° C. to be analysed at a later date) • 7. IL-1β was measured according to the manufacturer protocol (Perkin Elmer-AlphaLisa IL-1 Kit AL220F-5000) • 8. IC50 data is fitted to a non-linear regression equation (log inhibitor vs response-variable slope 4-parameters)

| SMILES | IC50 (NLRP3 [1]) [nM] | IC50 (NLRP3 [2]) [nM] |
| --- | --- | --- |
| COc1cc(-c2cc(F)c3c(c2NC(=O)NS(=O)(=O)N(C)CC2CCCN2C)CCC3)ccn1 (stereo not drawn) [Example 125, 3-(N-Methyl-N-((1-methylpyrrolidin-2-yl)methyl)sulfamoyl)-1-(7-fluoro-5-(2-methoxypyridin-4-yl)-2,3-dihydro-1H-inden-4-yl)urea] | ≤ 500 | ≤ 500 |
| O=C(Nc1c(-c2ccncc2)cc(F)c2c1CCC2)NS(=O)(=O)CCc1ccccc1 [Example 138, N-((7-Fluoro-5-(pyridin-4-yl)-2,3-dihydro-1H-inden-4-yl)carbamoyl)-2-phenylethanesulfonamide] | ≤ 1000 | ≤ 10000 |
| CCN(CCCS(=O)(=O)NC(=O)Nc1c(-c2ccncc2)cc(F)c2c1CCC2)Cc1ccccc1 [Example 153, 3-(Benzyl(ethyl)amino)-N-((7-fluoro-5-(pyridin-4-yl)-2,3-dihydro-1H-inden-4-yl)carbamoyl)propane-1-sulfonamide] | ≤ 500 | ≤ 5000 |
| COc1cc(-c2cc(F)cc(C(C)C)c2NC(=O)NS(=O)(=O)CC2CCN(C)C2)ccn1 (stereo not drawn) [Example 163, N-((4-Fluoro-2-isopropyl-6-(2-methoxypyridin-4-yl)phenyl)carbamoyl)-1-(1-methylpyrrolidin-3-yl) methanesulfonamide] | ≤ 500 | ≤ 500 |
| CC(C)Oc1cc(-c2cc(F)cc(C(C)C)c2NC(=O)NS(=O)(=O)c2cc(C(=O)N(C)C)n(C)n2)ccn1 [Example 168, 3-(N-((4-Fluoro-2-(2-isopropoxypyridin-4-yl)-6-isopropyl-phenyl)carbamoyl)sulfamoyl)-N,N,1-trimethyl-1H-pyrazole-5-carboxamide, sodium salt] | ≤ 500 | ≤ 5000 |
| COc1cc(-c2cc(F)c3c(c2NC(=O)NS(=O)(=O)c2ccn(C(C)(C)CN4CCC4)n2)CCC3)ccn1 [Example 173, 1-(1-(Azetidin-1-yl)-2-methylpropan-2-yl)-N-((7-fluoro-5-(2-methoxypyridin-4-yl)-2,3-dihydro-1H-inden-4-yl)carbamoyl)-1H-pyrazole-3-sulfonamide, sodium salt] | ≤ 500 | ≤ 500 |
| COc1cc(-c2ccc3c(c2NC(=O)NS(=O)(=O)CCOC(C)C)CCC3)ccn1 [Example 174, 2-Isopropoxy-N-((5-(2-methoxypyridin-4-yl)-2,3-dihydro-1H-inden-4-yl)carbamoyl)ethanesulfonamide, sodium salt] | ≤ 500 | ≤ 1000 |
| COc1cc(-c2ccc3c(c2NC(=O)NS(=O)(=O)CCOC(C)C)CCO3)ccn1 [Example 175, 2-Isopropoxy-N-((5-(2-methoxypyridin-4-yl)-2,3-dihydrobenzofuran-4-yl)carbamoyl)ethanesulfonamide, sodium salt] | ≤ 500 | ≤ 500 |
| COc1cc(-c2ccc3c(c2NC(=O)NS(=O)(=O)c2ccc(CN(C)C)nc2)CCC3)ccn1 [Example 176, 6-((Dimethylamino)methyl)-N-((5-(2-methoxypyridin-4-yl)-2,3-dihydro-1H-inden-4-yl)carbamoyl)pyridine-3-sulfonamide] | ≤ 500 | ≤ 500 |

Further lines, results first:

| IC50 (NLRP3 [1]) [nM] | IC50 (NLRP3 [2]) [nM] | SMILES |
| --- | --- | --- |
| ≤ 500 | ≤ 500 | COc1cc(-c2ccc3c(c2NC(=O)NS(=O)(=O)N(C)CC2CCCN2C)CCC3)ccn1 (stereo not drawn) [Example 123, 3-(N-Methyl-N-((1-methylpyrrolidin-2-yl)methyl)sulfamoyl)-1-(5-(2-methoxypyridin-4-yl)-2,3-dihydro-1H-inden-4-yl)urea] |
| ≤ 500 | ≤ 500 | COc1cc(-c2cc(F)c3c(c2NC(=O)NS(=O)(=O)N2C[C@H]4C[C@@H]2CN4C)CCC3)ccn1 [Example 126, (1R,4R)—N-((7-Fluoro-5-(2-methoxypyridin-4-yl)-2,3-dihydro-1H-inden-4-yl)carbamoyl)-5-methyl-2,5-diazabicyclo[2.2.1]heptane-2-sulfonamide] |
| ≤ 500 | ≤ 1000 | COc1cc(-c2ccc3c(c2NC(=O)NS(=O)(=O)c2cnn(C4CC4)c2)CCC3)ccn1 [Example 145, 1-Cyclopropyl-N-((5-(2-methoxypyridin-4-yl)-2,3-dihydro-1H-inden-4-yl)carbamoyl)-1H-pyrazole-4-sulfonamide] |
| ≤ 500 | ≤ 500 | CCN(CC)CCCS(=O)(=O)NC(=O)Nc1c(-c2ccncc2)cc(F)c2c1CCC2 [Example 149, 3-(Diethylamino)-N-((7-fluoro-5-(pyridin-4-yl)-2,3-dihydro-1H-inden-4-yl)carbamoyl)propane-1-sulfonamide] |
| ≤ 500 | ≤ 500 | COc1cc(-c2ccc3c(c2NC(=O)NS(=O)(=O)CC2CCN(C)C2)CCC3)ccn1 (stereo not drawn) [Example 164, N-((5-(2-Methoxypyridin-4-yl)-2,3-dihydro-1H-inden-4-yl)carbamoyl)-1-(1-methylpyrrolidin-3-yl) methanesulfonamide] |
| ≤ 5000 | ≤ 10000 | COCCN(CCOC)C(=O)c1cc(S(=O)(=O)NC(=O)Nc2c(-c3ccnc(OC(C)C)c3)cc(F)cc2C(C)C)nn1C [Example 166, 3-(N-((4-Fluoro-2-(2-isopropoxypyridin-4-yl)-6-isopropyl-phenyl)carbamoyl)sulfamoyl)-N,N-bis(2-methoxyethyl)-1-methyl-1H-pyrazole-5-carboxamide, sodium salt] |
| ≤ 500 | ≤ 500 | COCCN(CCOC)C(=O)c1cc(S(=O)(=O)NC(=O)Nc2c(-c3ccnc(OC)c3)ccc3c2CCC3)nn1C [Example 167, N,N-Bis(2-methoxyethyl)-3-(N-((5-(2-methoxypyridin-4-yl)-2,3-dihydro-1H-inden-4-yl)carbamoyl)sulfamoyl)-1-methyl-1H-pyrazole-5-carboxamide, sodium salt] |
| ≤ 500 | ≤ 500 | COc1cc(-c2ccc3c(c2NC(=O)NS(=O)(=O)c2cc(C(=O)N(C)C)n(C)n2)CCC3)ccn1 [Example 169, 3-(N-((5-(2-Methoxypyridin-4-yl)-2,3-dihydro-1H-inden-4-yl)carbamoyl)sulfamoyl)-N,N,1-trimethyl-1H-pyrazole-5-carboxamide, sodium salt] |
| ≤ 500 | ≤ 1000 | COc1cc(-c2cc(F)c3c(c2NC(=O)NS(=O)(=O)c2ccn(C4CC4)n2)CCC3)ccn1 [Example 170, 1-Cyclopropyl-N-((7-fluoro-5-(2-methoxypyridin-4-yl)-2,3-dihydro-1H-inden-4-yl)carbamoyl)-1H-pyrazole-3-sulfonamide, sodium salt] |
| ≤ 500 | ≤ 5000 | COc1cc(-c2cc(C3CC3)c3c(c2NC(=O)NS(=O)(=O)c2ccn(C4CC4)n2)CCC3)ccn1 [Example 171, 1-Cyclopropyl-N-((7-cyclopropyl-5-(2-methoxypyridin-4-yl)-2,3-dihydro-1H-inden-4-yl)carbamoyl)-1H-pyrazole-3-sulfonamide, sodium salt] |
| ≤ 500 | ≤ 1000 | COc1cc(-c2cc(F)c3c(c2NC(=O)NS(=O)(=O)c2ccn(C4CCC4)n2)CCC3)ccn1 [Example 172, 1-Cyclobutyl-N-((7-fluoro-5-(2-methoxypyridin-4-yl)-2,3-dihydro-1H-inden-4-yl)carbamoyl)-1H-pyrazole-3-sulfonamide, sodium salt] |
| ≤ 500 | ≤ 1000 | COc1cc(-c2ccc3c(c2NC(=O)NS(=O)(=O)c2ccnc(CN(C)C)c2)CCC3)ccn1 [Example 177, 2-((Dimethylamino)methyl)-N-((5-(2-methoxypyridin-4-yl)-2,3-dihydro-1H-inden-4-yl)carbamoyl)pyridine-4-sulfonamide, sodium salt] |
